Results published in publication PMC5777145 (Analytical chemistry, 2017).
“Also recorded” adds a separate entry of the source.

Legend:
[1] = ref International Agency for Research on Cancer (IARC); cited from earlier work
salmon testes DNA [2] = conditions: for ECL intensity vs enzyme reaction time, DNA oxidation (8-oxodG): 3 mM 4ABP, AF or anisidine, 5 mM NA, pH 7.4 + NADPH regenerating system + Cu2+, different cyt P450 sources, ECL at 0.7 V
cyt P450s = test: Mass spectrometry of metabolites after incubation with cyt P450s, NADPH and Cu2+; format: in vitro ADME; conditions: positive-ion electrospray MS
DNA = conditions: cited from earlier work
salmon testes DNA [3] = tested on: salmon testes DNA
[4] = rodent TD50, Comet assay; cited from earlier work

COc1ccccc1N [anisidine, o-anisidine]
carcinogen classification [1]: group 2B carcinogen
ECL intensity vs enzyme reaction time, DNA oxidation (8-oxodG) (salmon testes DNA [2]): increases in ECL with reaction time
metabolites found (cyt P450s): o-aminophenol
major DNA adduct found (DNA): N-(2′-deoxyguanosin-8-yl)-2-methoxyaniline

Nc1ccc(-c2ccccc2)cc1 [4ABP, 4-Aminobiphenyl]
carcinogen classification [1]: group I carcinogen
ECL intensity vs enzyme reaction time, DNA oxidation (8-oxodG) (salmon testes DNA [2]): increase in ECL intensity with reaction time
major DNA adduct found (DNA): N-(2′-deoxyguanosin-8-yl)-4-aminobiphenyl

Nc1ccc2c(c1)Cc1ccccc1-2 [AF, 2-aminofluorene]
ECL intensity vs enzyme reaction time, DNA oxidation (8-oxodG) (salmon testes DNA [2]): increases in ECL with reaction time

Nc1ccc2ccccc2c1 [NA, 2-naphthylamine]
relative turnover rate R, DNA oxidation (level in words) (salmon testes DNA [2]): smaller R values
ECL intensity vs enzyme reaction time, DNA oxidation (8-oxodG) (salmon testes DNA [2]): increases in ECL with reaction time
influence of cyt P450 source on relative DNA oxidation rate (salmon testes DNA [2]; human, rat (enzyme sources), salmon (DNA), pH 7.4): Supersome 1A2 had the largest relative DNA oxidation and adduction rates
order of relative DNA oxidation rates (salmon testes DNA [2]; pH 7.4): 4-ABP > AF ≈ anisidine > NA
metabolites found (cyt P450s): hydronitroxide radical; also recorded: nitroso naphthalene
order of relative DNA adduction rate (salmon testes DNA [3]): 4-ABP > AF > anisidine > NA
relative turnover rate R, DNA adduction (level in words) (salmon testes DNA [3]; array R values): smaller R values
influence of cyt P450 source on relative DNA adduction rate (salmon testes DNA [3]; human, rat (enzyme sources), salmon (DNA)): Supersome 1A2 had the largest relative DNA oxidation and adduction rates
major DNA adduct found (DNA): N-(2′-deoxyguanosin-8-yl)-2-naphthylamine
toxicity by conventional bioassays [4]: relative lower levels of toxicity
